ChEMBL document CHEMBL4689842, “EUbOPEN Chemogenomics Library wave 1” (2021)

What was measured:
Format in all cases: toxicity, cell-based
HEK-293T = assay: Incucyte cell viability with HEK293T; conditions: human, 10 µM, compound concentration 10 uM
Fibroblast = assay: Incucyte cell viability with human fibroblast; conditions: 10 µM, compound concentration 10 uM
U2OS = assay: Incucyte cell viability with U2OS; conditions: human, 10 µM, compound concentration 10 uM
[1] = 0 h, replicate number 1, timepoint 0 hours
[2] = 6 h, replicate number 1, timepoint 6 hours
[3] = 6 h, replicate number 2, timepoint 6 hours
[4] = 12 h, replicate number 1, timepoint 12 hours
[5] = 12 h, replicate number 2, timepoint 12 hours
[6] = 18 h, replicate number 1, timepoint 18 hours
[7] = 18 h, replicate number 2, timepoint 18 hours
[8] = 24 h, replicate number 1, timepoint 24 hours
[9] = 24 h, replicate number 2, timepoint 24 hours
[10] = 0 h, replicate number 2, timepoint 0 hours
Further: filed as whole numbers so only -1 and 0 and 1 occur.

| Compound | Growth Rate (HEK-293T; [1]) | Growth Rate (HEK-293T; [2]) | Growth Rate (HEK-293T; [4]) | Growth Rate (HEK-293T; [5]) | Growth Rate (HEK-293T; [6]) | Growth Rate (HEK-293T; [8]) | Growth Rate (Fibroblast; [1]) | Growth Rate (Fibroblast; [7]) | Growth Rate (U2OS; [1]) | Growth Rate (U2OS; [2]) | Growth Rate (U2OS; [4]) | Growth Rate (U2OS; [6]) | Growth Rate (U2OS; [8]) | Growth Rate (U2OS; [9]) | Growth Rate (Fibroblast; [8]) | Growth Rate (U2OS; [3]) | Growth Rate (Fibroblast; [2]) | Growth Rate (Fibroblast; [4]) | Growth Rate (Fibroblast; [6]) | Growth Rate (U2OS; [5]) | other results |
| --- | --- | --- | --- | --- | --- | --- | --- | --- | --- | --- | --- | --- | --- | --- | --- | --- | --- | --- | --- | --- | --- |
| CC(C)NCC(O)c1ccc(N)c(C#N)c1 (configuration not stated) [CIMATEROL] | 0 | 0 | 0 | 1 | 0 | 0 | 0 | 0 | 0 | 1 | 1 | 0 | 1 | 0 |  |  |  |  |  |  | Growth Rate (HEK-293T; [3]): 1; Growth Rate (HEK-293T; [7]): 1; Growth Rate (Fibroblast; [5]): 1; Growth Rate (Fibroblast; [9]): 1; Growth Rate (U2OS; [7]): 1 |
| O=C(c1ccc(F)c(F)c1Nc1ccc(I)cc1F)N1CC(O)([C@@H]2CCCCN2)C1 [COBIMETINIB] |  | 0 |  | 0 |  | 1 |  |  | 0 | 0 | 0 | 0 | 0 |  | 1 | 1 |  |  |  |  | Growth Rate (HEK-293T; [7]): 1; Growth Rate (HEK-293T; [9]): 0 |
| CN(C)CC[C@@H](c1ccc(Cl)cc1)c1ccccn1.O=C(O)/C=C\C(=O)O [DEXCHLORPHENIRAMINE MALEATE] | 0 | 1 | 1 |  | 1 | 1 | 0 | 0 | 0 |  | 1 | 0 | 1 | 0 | 1 | 0 | 1 | 1 | 1 | 0 | Growth Rate (HEK-293T; [3]): 0; Growth Rate (Fibroblast; [9]): 0 |
| CCCCC[C@H](O)/C=C/[C@@H]1[C@@H](C/C=C\CCCC(=O)O)[C@@H](O)C[C@H]1O [DINOPROST] | 1 | 0 | 0 |  | 0 | 0 | 0 | 1 | 0 |  | 1 | 1 | 1 |  |  | 0 |  |  |  |  | Growth Rate (HEK-293T; [10]): 0; Growth Rate (Fibroblast; [3]): 1; Growth Rate (Fibroblast; [5]): 0; Growth Rate (Fibroblast; [9]): 1 |
| CCC1(C2=NCCN2)Cc2ccccc2O1 (configuration not stated) [EFAROXAN] | 1 | 1 | 1 |  | 1 | 1 | 0 |  | 0 |  | 0 | 0 | 1 |  | 0 | 1 | 0 | 0 | 0 | 1 | Growth Rate (HEK-293T; [10]): 0; Growth Rate (Fibroblast; [10]): 1; Growth Rate (U2OS; [10]): 1 |
| CNc1cc2[nH]c(=O)n(-c3ccc(NC(=O)NS(=O)(=O)c4ccc(Cl)s4)cc3)c(=O)c2cc1F [ELINOGREL] | 1 | 0 | 0 | 1 | 0 | 0 | 0 | 0 | 1 | 0 | 0 | 0 | 0 | 1 | 1 |  |  | 1 | 1 | 1 | Growth Rate (HEK-293T; [10]): 0; Growth Rate (HEK-293T; [7]): 1; Growth Rate (HEK-293T; [9]): 1; Growth Rate (Fibroblast; [10]): 1; Growth Rate (Fibroblast; [3]): 0; Growth Rate (Fibroblast; [5]): 0; Growth Rate (Fibroblast; [9]): 0; Growth Rate (U2OS; [7]): 1 |
| CN1CC(=O)N=C1NC(=O)Nc1cccc(Cl)c1 [FENOBAM ANHYDROUS] | 0 | 1 | 1 | 0 | 1 | 1 | 0 |  | 0 |  | 0 | 1 | 1 |  | 1 | 1 |  | 1 | 1 | 1 | Growth Rate (HEK-293T; [7]): 0; Growth Rate (HEK-293T; [9]): 0 |
| CN(C)CCCn1cc(C2=C(c3c[nH]c4ccccc34)C(=O)NC2=O)c2ccccc21 [GF-109203] | 0 | 0 | 0 |  | 0 | 0 | 0 | 1 |  |  | 1 | 0 | 0 |  | 0 |  |  | 1 | 0 |  | Growth Rate (HEK-293T; [10]): 1; Growth Rate (U2OS; [10]): 0 |
| COc1ccc(COc2ccc(Cc3cnc(N)nc3N)cc2OC)cc1 [GW632580X] |  | 0 | 0 |  | 0 | 0 | 1 | 0 | 0 | 0 | 1 | 1 | 1 | 0 | 1 |  | 1 | 1 | 1 | 0 | Growth Rate (Fibroblast; [3]): 0; Growth Rate (Fibroblast; [5]): 0; Growth Rate (Fibroblast; [9]): 0; Growth Rate (U2OS; [7]): 0 |
| N#Cc1ccccc1OCC(O)CNCCNC(=O)Nc1ccccc1 (configuration not stated) [ICI-89406] | 1 | 0 | 0 | 1 | 1 | 1 | 0 |  | 0 | 1 | 0 | 0 | 1 | 0 | 0 | 0 | 0 | 0 | 0 |  | Growth Rate (HEK-293T; [10]): 0 |
| Cc1cccc(NC(=O)N[C@@H]2N=C(c3ccccc3)c3ccccc3N(C)C2=O)c1 [L-365260] | 0 | 0 | 0 |  | 0 | 0 | 0 |  | 0 | 0 | 1 | 0 | 0 | 1 | 1 |  |  | 1 | 0 | 0 | Growth Rate (U2OS; [10]): 1 |
| CCC(=O)N1CC[C@H](Nc2ncnc3c2CN(c2cnc(OC)c(C(F)(F)F)c2)CC3)C1 [LENIOLISIB] |  |  |  | 1 |  |  |  |  | 0 | 0 | 0 | 0 | 0 |  | 0 |  | 0 | 0 | 0 | 1 | Growth Rate (HEK-293T; [3]): 0; Growth Rate (HEK-293T; [9]): 1; Growth Rate (Fibroblast; [10]): 1; Growth Rate (U2OS; [10]): 1 |
| CCCCc1nc(Cl)c(CO)n1Cc1ccc(-c2ccccc2-c2nn[nH]n2)cc1 [LOSARTAN] | 0 | 1 | 1 | 0 | 1 | 1 | 0 | 0 | 0 | 0 | 1 | 0 | 0 | 1 | 1 | 1 | 1 | 1 | 1 |  | Growth Rate (HEK-293T; [3]): 0; Growth Rate (HEK-293T; [7]): 0; Growth Rate (HEK-293T; [9]): 0; Growth Rate (Fibroblast; [3]): 0; Growth Rate (Fibroblast; [5]): 0; Growth Rate (Fibroblast; [9]): 0; Growth Rate (U2OS; [7]): 1 |
| O=C(NOC[C@H](O)CO)c1ccc(F)c(F)c1Nc1ccc(I)cc1F [MIRDAMETINIB] | 0 |  |  |  |  |  |  |  |  | 0 | 0 | 0 | 0 |  | 1 |  | 1 | 1 | 1 |  | Growth Rate (HEK-293T; [10]): 1; Growth Rate (HEK-293T; [9]): 1; Growth Rate (Fibroblast; [10]): 0; Growth Rate (Fibroblast; [3]): 0; Growth Rate (U2OS; [10]): 0 |
